The numbers were not newly measured in patent US20210169840A1, “COMPOSITION AND METHOD OF AN IRON SUPPLEMENT” (priority 2019, published 2021), which cites them from elsewhere.

For this series the following is noted: in vivo.

On to carbonyl iron, for which the absorption was ~70%.
